Results: ChEMBL document CHEMBL1145008, “Relationship between stereochemistry and the beta3-adrenoceptor agonistic activity of 4'-hydroxynorephedrine derivative as an agent for treatment of frequent urination and urinary incontinence” (J Med Chem, 2003)

How the values were obtained:
[1] = biological target: Beta-1 adrenergic receptor (Rattus norvegicus) (UniProt P18090)
Description: Mean concentration required to increase basal rate of rat atria by 20 beats per minute

[2] = biological target: Beta-1 adrenergic receptor (Rattus norvegicus) (UniProt P18090); remark: listed apart in the source
Description: (§1) Agonistic activity for Beta-1 adrenergic receptor was estimated from it's chronotropic effect on rat atria

[3] = biological target: Beta-2 adrenergic receptor (Rattus norvegicus) (UniProt P10608); assay: Agonistic activity for Beta-2 adrenergic receptor was assessed by it's inhibitory effect on spontaneous contractions in isolated rat uterus
[4] = biological target: Beta-1 adrenergic receptor (Rattus norvegicus) (UniProt P18090); remark: listed apart in the source
Description: as §1

Beta-1 adrenergic receptor (Rattus norvegicus), sequence (P18090 whole entry, looked up): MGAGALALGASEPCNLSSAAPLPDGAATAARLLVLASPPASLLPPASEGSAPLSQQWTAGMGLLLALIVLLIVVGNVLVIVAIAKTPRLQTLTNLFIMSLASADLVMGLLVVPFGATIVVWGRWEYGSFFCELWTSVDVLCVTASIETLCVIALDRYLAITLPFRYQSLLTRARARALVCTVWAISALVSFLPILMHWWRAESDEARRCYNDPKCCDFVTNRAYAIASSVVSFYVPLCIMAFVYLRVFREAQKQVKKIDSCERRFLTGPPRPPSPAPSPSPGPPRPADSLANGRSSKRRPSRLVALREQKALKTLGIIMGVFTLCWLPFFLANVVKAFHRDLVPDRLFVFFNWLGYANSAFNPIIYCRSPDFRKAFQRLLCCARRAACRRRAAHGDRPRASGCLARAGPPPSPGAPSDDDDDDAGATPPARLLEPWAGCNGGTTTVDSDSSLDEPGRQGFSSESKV
Beta-2 adrenergic receptor (Rattus norvegicus), sequence (P10608 whole entry, looked up): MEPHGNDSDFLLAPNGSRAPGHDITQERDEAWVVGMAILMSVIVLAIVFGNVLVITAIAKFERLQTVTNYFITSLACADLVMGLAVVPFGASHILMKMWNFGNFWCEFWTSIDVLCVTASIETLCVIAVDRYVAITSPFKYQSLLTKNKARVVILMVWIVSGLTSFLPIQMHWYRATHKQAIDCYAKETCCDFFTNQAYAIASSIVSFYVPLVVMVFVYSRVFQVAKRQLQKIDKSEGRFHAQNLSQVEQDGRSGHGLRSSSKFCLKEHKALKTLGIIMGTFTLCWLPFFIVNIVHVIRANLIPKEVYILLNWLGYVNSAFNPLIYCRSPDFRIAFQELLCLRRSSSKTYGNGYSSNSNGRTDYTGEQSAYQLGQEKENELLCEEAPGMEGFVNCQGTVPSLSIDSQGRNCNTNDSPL

Row | SMILES | EC20 [1] | pEC20 [2] | IC50 [3] | pEC20 [4]
1 | CCOC(=O)COc1ccc(CCNC(C)C(O)c2ccc(O)cc2)cc1Cl (stereo not given) | 1.6 µM | 5.8 | – | –
2 | C[C@H](NCCc1ccc(OCC(=O)O)c(Cl)c1)[C@H](O)c1ccc(O)cc1 | > 100 µM | – | – | –
3 | C[C@H](NCCc1ccc(OCC(=O)O)c(Cl)c1)[C@@H](O)c1ccc(O)cc1 | 55 µM | 4.26 | – | –
4 | C[C@@H](NCCc1ccc(OCC(=O)O)c(Cl)c1)[C@H](O)c1ccc(O)cc1 | 21 µM | 4.68 | – | –
5 | C[C@H](Cc1ccc(OCC(=O)O)cc1)NC[C@H](O)c1cccc(Cl)c1 (relative stereo) | – | – | 0.00912 µM | –
6 | C[C@@H](NCCc1ccc(OCC(=O)O)c(Cl)c1)[C@@H](O)c1ccc(O)cc1 | 14 µM | – | – | 4.86
